This passage reports TGI and GI50 results from PubChem BioAssay (NCI).

Among the test systems are HCT-116 colon; HCT-15 colon; HOP-62 NSCLC; M14 melanoma; NCI-H23 lung; OVCAR-4 ovarian; PC-3 prostate; SN12C renal; COLO 205 colon; A498 renal.
Common to all, as to assay: inhibition of tumour cell growth, NCI panel, 48 h

Several values for one entry are separate records, joined by “and”; a condition that tells them apart may be missing. Equal values may be shown once.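 Protocol summary: plate cells (96-well), add compound at 5 concentrations, incubate 48 h, interpolate endpoints linearly. The concentration for 50% growth inhibition is given as GI50. TGI marks complete inhibition of growth.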

Turning to `O=C1CCC2(CCO1)OCCO2`, the TGI with HCT-116 colon, in the experiment with HCT-15 colon, in the experiment with HOP-62 NSCLC, in the experiment with M14 melanoma, in the experiment with NCI-H23 lung and in the experiment on OVCAR-4 ovarian was greater than 100 µM throughout. The TGI in the experiment on PC-3 prostate and in the experiment on SN12C renal was greater than 100 µM each time.

With `C[C@@H](O)C(=O)N1[C@@H]2CC3CC[C@]2(CS1(=O)=O)C3(C)C`, the TGI in the experiment with COLO 205 colon, in the experiment with HCT-116 colon, in the experiment with HCT-15 colon, with HOP-62 NSCLC, in the experiment on M14 melanoma and with NCI-H23 lung was greater than 100 µM throughout. Moreover, the TGI with OVCAR-4 ovarian, in the experiment with PC-3 prostate and in the experiment on SN12C renal was greater than 100 µM throughout.

Regarding `OCC1OC(n2cnc3cncnc32)C(O)C1O` (stereo not drawn), the TGI is 3.69 µM in the experiment on A498 renal; 1.7 µM in the experiment with COLO 205 colon; 1.23 µM in the experiment on HCT-116 colon; 2.08 µM in the experiment on HCT-15 colon; 6.84 µM with HOP-62 NSCLC; 3.68 µM in the experiment with NCI-H23 lung. The TGI came to 2.63 µM in the experiment on OVCAR-4 ovarian and 3.97 µM in the experiment on SN12C renal.

Take `Cc1ccc(C(=O)O)c(CC2Cc3c(C)cccc3C2=O)c1` (stereo not drawn): the TGI in the experiment with COLO 205 colon, in the experiment with HCT-116 colon, in the experiment on HCT-15 colon, in the experiment on HOP-62 NSCLC, with M14 melanoma and in the experiment on NCI-H23 lung was greater than 100 µM throughout. Also, the TGI in the experiment with OVCAR-4 ovarian, in the experiment with PC-3 prostate and in the experiment with SN12C renal was greater than 100 µM throughout.

On to `Cc1ccc(C(C)(C)C[P+](C)(c2ccccc2)c2ccccc2)cc1`, for which the TGI in the experiment with A498 renal was greater than 100 µM; with COLO 205 colon, 18.7 µM; in the experiment on HCT-116 colon, greater than 58.1 µM; with HCT-15 colon, greater than 100 µM; with HOP-62 NSCLC, 75.9 µM; with NCI-H23 lung it was greater than 58.7 µM. Besides, the figures for the TGI with OVCAR-4 ovarian and with SN12C renal were 63.7 µM and greater than 86.3 µM, respectively.

For the compound `C/C(=C\c1ccccn1)c1ccccn1`, the TGI with A498 renal, in the experiment on COLO 205 colon, with HCT-116 colon, in the experiment on HCT-15 colon, in the experiment on HOP-62 NSCLC and in the experiment with M14 melanoma was greater than 100 µM in each case. In addition, the TGI in the experiment with NCI-H23 lung, in the experiment with OVCAR-4 ovarian and with PC-3 prostate was greater than 100 µM in each case.

Take `C/C=C\C(CC(=O)NCCc1cn(C(=O)OCc2ccccc2)c2ccccc12)CC(=O)OC` (stereo not drawn): the TGI in the experiment on A498 renal, with COLO 205 colon, in the experiment on HCT-116 colon, in the experiment with HCT-15 colon, in the experiment with HOP-62 NSCLC and in the experiment with M14 melanoma was greater than 100 µM throughout. Besides, the TGI in the experiment on NCI-H23 lung, in the experiment on OVCAR-4 ovarian and with PC-3 prostate was greater than 100 µM in each case.

Turning to `CCOC(=O)C(=[N+]=[N-])C(=O)Nc1nn2nnnc2c2ccccc12`, the TGI with A498 renal, in the experiment with COLO 205 colon, in the experiment on HCT-116 colon, with HOP-62 NSCLC, with M14 melanoma and with NCI-H23 lung was greater than 100 µM throughout. The TGI in the experiment on OVCAR-4 ovarian, in the experiment on PC-3 prostate and in the experiment with SN12C renal was greater than 100 µM in each case.

On to `COC1OC(Cc2nnc(C)o2)C(OCc2ccccc2)C(OCc2ccccc2)C1OCc1ccccc1` (stereo not drawn), for which the TGI with A498 renal was greater than 100 µM; with COLO 205 colon, 44.1 µM; in the experiment on HCT-116 colon, greater than 100 µM; in the experiment on HCT-15 colon it was greater than 100 µM; with HOP-62 NSCLC it was greater than 100 µM; with M14 melanoma, greater than 100 µM. For the same compound, the TGI in the experiment on NCI-H23 lung was 56 µM; in the experiment on OVCAR-4 ovarian, greater than 100 µM; in the experiment with SN12C renal, 85.3 µM.

Turning to `C/C(=N\NC(=S)N1CCCCC1)c1cccc(C)n1`, the TGI came out at 0.607 µM with A498 renal; 13.7 µM in the experiment with COLO 205 colon; 21.6 µM in the experiment on HCT-15 colon; 0.394 µM with M14 melanoma; 10.7 µM in the experiment on NCI-H23 lung; 51.6 µM in the experiment on OVCAR-4 ovarian. The values for the TGI in the experiment on PC-3 prostate and with SN12C renal were 19.7 µM and 12.1 µM, respectively.

Turning to `c1ccc(CCN2CCc3[nH]c4ccccc4c3C2)cc1`, the TGI with A498 renal is 33.3 µM; in the experiment on COLO 205 colon it was greater than 10 µM; in the experiment on HCT-116 colon, 28.7 µM; with HCT-15 colon, 46.2 µM; in the experiment on HOP-62 NSCLC it was 45.6 µM; in the experiment with M14 melanoma it was 34 µM. Besides, the TGI in the experiment on NCI-H23 lung is greater than 100 µM; in the experiment with OVCAR-4 ovarian, greater than 100 µM; in the experiment on SN12C renal, 62.2 µM.

With `Cc1cccc2c1[nH]c1[nH]c(=O)[nH]c(=O)c12`, the TGI in the experiment with A498 renal, with COLO 205 colon, in the experiment with HCT-116 colon, in the experiment on HCT-15 colon, with HOP-62 NSCLC and in the experiment with M14 melanoma was greater than 100 µM throughout. In addition, the TGI in the experiment with NCI-H23 lung, with OVCAR-4 ovarian and in the experiment on SN12C renal was greater than 100 µM in each case.

In the case of `O=CC(O)C(O)C(O)C(O)C(=O)NCCCCCCCCCCCCNC(=O)C(O)C(O)C(O)C(O)C=O` (stereo not drawn), the TGI in the experiment with A498 renal, in the experiment on COLO 205 colon, in the experiment on HCT-116 colon, in the experiment on HCT-15 colon, in the experiment on HOP-62 NSCLC and in the experiment with M14 melanoma was greater than 100 µM in each case. The TGI in the experiment with NCI-H23 lung, with OVCAR-4 ovarian and in the experiment with PC-3 prostate was greater than 100 µM in each case.

On to `Nc1cccc2c1C(=O)c1cccc(N)c1C2=O`, for which the TGI in the experiment on A498 renal, in the experiment on COLO 205 colon, in the experiment with HCT-116 colon, in the experiment on HCT-15 colon, with HOP-62 NSCLC and with M14 melanoma was greater than 100 µM in each case. In addition, the TGI in the experiment with NCI-H23 lung, in the experiment on OVCAR-4 ovarian and in the experiment on SN12C renal was greater than 100 µM throughout.

With `Cc1cc(O)c(C(C)C)cc1SC#N`, the TGI with A498 renal was 31.9 µM; with COLO 205 colon it was 40.5 µM; in the experiment on HCT-15 colon, 39.3 µM; in the experiment on HOP-62 NSCLC it was 38.2 µM; with NCI-H23 lung, 33.3 µM; with OVCAR-4 ovarian it was 28.5 µM. This compound also showed a TGI with PC-3 prostate of 34.4 µM.

In the case of `COC(=O)C1CCC(=O)N1C(=O)Cc1ccc(OC)cc1` (stereo not drawn), the TGI in the experiment on A498 renal, in the experiment on COLO 205 colon, with HCT-116 colon, with HCT-15 colon, with M14 melanoma and with NCI-H23 lung was greater than 100 µM in each case. Moreover, the TGI with OVCAR-4 ovarian and in the experiment on SN12C renal was greater than 100 µM each time.

On to `[Cl][Pt+2][Cl].[NH-]C1CCCCC1[NH-]` (stereo not drawn), for which the GI50 is > 100 µM and 12.6 µM with A498 renal; 5.58 µM and 4.7 µM and 0.677 µM in the experiment with HCT-15 colon; 53.7 µM and > 100 µM and 22.3 µM with HOP-62 NSCLC; 7.21 µM and 3.26 µM and 1.07 µM with NCI-H23 lung; 14.5 µM and 9.24 µM and 2.19 µM in the experiment on OVCAR-4 ovarian; 8.78 µM and 6.22 µM and 2.62 µM in the experiment with SN12C renal. The TGI in the experiment with A498 renal is > 100 µM and 65.3 µM; with COLO 205 colon, > 49.5 µM and > 70.4 µM and 13.6 µM; in the experiment on HCT-116 colon it was > 100 µM and 16 µM; in the experiment with HCT-15 colon, 35.3 µM and > 100 µM and 37.9 µM; with HOP-62 NSCLC it was greater than 100 µM; with NCI-H23 lung it was > 58.2 µM and > 100 µM and 17.5 µM. For the same compound, the TGI is 64.2 µM and 90.5 µM and 47.1 µM with OVCAR-4 ovarian; greater than 100 µM in the experiment on SN12C renal.

On to `Cn1nc2n(c1=O)CCCN2`, for which the TGI with A498 renal, in the experiment with COLO 205 colon, with HCT-116 colon, in the experiment with HCT-15 colon, in the experiment on HOP-62 NSCLC and in the experiment on NCI-H23 lung was greater than 100 µM in each case. For the same compound, the TGI in the experiment with OVCAR-4 ovarian, with PC-3 prostate and in the experiment on SN12C renal was greater than 100 µM each time.

As for `CCc1c(Cc2cccc3ccccc23)n2c(nc1=O)SCC2OCCO` (stereo not drawn), the TGI in the experiment with A498 renal, in the experiment on COLO 205 colon, in the experiment with HCT-116 colon, in the experiment on HCT-15 colon, with M14 melanoma and in the experiment with NCI-H23 lung was greater than 100 µM throughout. The TGI in the experiment on OVCAR-4 ovarian, with PC-3 prostate and with SN12C renal was greater than 100 µM in each case.

`COc1ccc(/C=c2\[nH]c3nc(=O)c(N4CCOCC4)c(N)n3c2=O)cc1`: the TGI in the experiment with A498 renal, in the experiment with COLO 205 colon, in the experiment on HCT-116 colon, with HCT-15 colon, in the experiment with M14 melanoma and in the experiment with NCI-H23 lung was greater than 100 µM throughout. The TGI in the experiment with OVCAR-4 ovarian and in the experiment with SN12C renal was greater than 100 µM each time.

For `Cc1ccc(S(=O)(=O)NNC(=O)c2cc(C)ccc2NC(=O)C23CC4CC(CC(C4)C2)C3)cc1`, the TGI is greater than 100 µM in the experiment on COLO 205 colon; greater than 100 µM in the experiment with HCT-116 colon; 66.8 µM in the experiment on HCT-15 colon; greater than 100 µM with HOP-62 NSCLC; greater than 100 µM in the experiment with M14 melanoma; greater than 100 µM with NCI-H23 lung. The results for the TGI in the experiment on OVCAR-4 ovarian, in the experiment with PC-3 prostate and in the experiment on SN12C renal were 78.5 µM, greater than 100 µM and greater than 100 µM, respectively.

Consider `Cc1ccccc1-n1c(C)nc2c1C(=O)c1ccccc1C2=O`, for which the TGI in the experiment on A498 renal, with HCT-116 colon, in the experiment on HCT-15 colon, in the experiment on HOP-62 NSCLC, in the experiment on M14 melanoma and in the experiment on NCI-H23 lung was greater than 100 µM throughout. Also, the TGI in the experiment on OVCAR-4 ovarian and with SN12C renal was greater than 100 µM each time.

For the compound `CN(C)c1nc(N(C)C)nc(N(C)C23CC4CC(CC(C4)C2)C3)n1`, the TGI with A498 renal is greater than 100 µM; in the experiment with COLO 205 colon it was 32.7 µM; with HCT-116 colon, 58.8 µM; in the experiment on HCT-15 colon it was greater than 100 µM; with HOP-62 NSCLC, greater than 100 µM; with M14 melanoma, greater than 100 µM. Also, the TGI is 34.1 µM with NCI-H23 lung, greater than 100 µM with OVCAR-4 ovarian and 72 µM in the experiment with PC-3 prostate.
